Measured values from patent US4085114A, “1,2-Benzoisoxazole derivatives and the production thereof” (Shionogi & Co., Ltd., priority 1975, dated 1978).
Values after ≈ are worked out from the molar mass of the structure shown.

How the values were obtained:
in vivo = conditions: mouse, iv, female DS mice
isolated atria = assay: β-Blocking activities in the isolated atria (inhibition of positive inotropic effect of isoproterenol); assay type: cell-based, Guinea-pigs; conditions: Cavia porcellus, read-out: fifty percent inhibitory concentration on the positive inotropic effect of isoproterenol (IC50), 1. Atria
Experimental: (§1) Guinea-pigs of either sex, weighing between 400 - 700 g each, were killed by a sharp blow on the head. Their atria and trachea were quickly excised and freed of excess tissues.
1. β-Blocking activities in the isolated atria:
The isolated atria were mounted in a 30 ml organ bath filled with Krebs-Ringer-bicarbonate solution, which was constantly bubbled with a gas mixture of 95% oxygen and 5% carbon dioxide at 30° C. Spontaneous contractions of the atria were isometrically recorded on the polygraph (RM-150, Nihon Kohden Kogyo) by mean of a F-D pick-up (N. K. K.) and the number of contractions in one minute was recorded on the home-made pulse counter triggered by the atrial contractions.

isolated trachea = assay: β-Blocking activities in the isolated trachea (inhibition of isoproterenol-induced relaxation of tracheal chain); assay type: cell-based, Guinea-pigs; conditions: Cavia porcellus, read-out: fifty percent inhibitory concentration on the relaxation of tracheal chain by isoproterenol (IC50), 2. Trachea
Text: as §1

SMILES | LD50 (in vivo) | IC50 (isolated atria) | IC50 (isolated trachea)
Cc1noc2cccc(OCC(O)CNC(C)C)c12 (centres unmarked) [3-methyl-4-(2-hydroxy-3-isopropylaminopropoxy)-1,2-benzisoxazole] | 45 mg/kg | 25 ng/mL (≈ 0.0946 µM) | 
Cc1noc2cccc(OCC(O)CNC(C)(C)C)c12 (centres unmarked) [3-methyl-4-(2-hydroxy-3-tert-butylaminopropoxy)-1,2-benzisoxazole] | 41.8 mg/kg | 7.9 ng/mL (≈ 0.0284 µM) | 1.1 ng/mL (≈ 0.00395 µM)
